Experimental data from ChEMBL document CHEMBL4813973, “Discovery of novel N-benzylbenzamide derivatives as tubulin polymerization inhibitors with potent antitumor activities” (Eur J Med Chem, 2021).

Key:
A-431 = assay: Antiproliferative activity against human A-431 cells assessed as reduction in cell viability incubated for 72 hrs by MTT assay; assay type: functional, cell-based; conditions: A-431, 72 h
HCT-8 = assay: Antiproliferative activity against human HCT-8 cells assessed as reduction in cell viability incubated for 72 hrs by MTT assay; assay type: functional, cell-based; conditions: Homo sapiens, HCT-8, 72 h; read-out: IC50
MDA-MB-231 = assay: Antiproliferative activity against human MDA-MB-231 cells assessed as reduction in cell viability incubated for 72 hrs by MTT assay; assay type: functional, cell-based; conditions: MDA-MB-231, 72 h
H22 = assay: Antiproliferative activity against mouse H22 cells assessed as reduction in cell viability incubated for 72 hrs by MTT assay; assay type: functional, cell-based; conditions: H22, 72 h
L02 = assay: Cytotoxicity against human L02 cells assessed as reduction in cell viability incubated for 72 hrs by MTT assay; assay type: cell-based; conditions: L02, 72 h
HepG2 = assay: cells; conditions: Homo sapiens, HepG2, 72 h
K562 = assay: cells; conditions: Homo sapiens, K562, 72 h
Description: Antiproliferative activity against human K562 cells assessed as reduction in cell viability incubated for 72 hrs by MTT assay

[1] = Metabolic stability in rat plasma assessed as parent compound remaining at 100 nM measured after 60 mins by HPLC analysis; assay type: ADME, cell-free; conditions: 1 h, 0.1 µM

COc1ccc(CNC(=O)c2cc(O)ccc2N2CCOCC2)cc1O gave an IC50 (A-431) of 121 nM.

Molecule O=C(NCc1ccc(O)cc1)c1cc([N+](=O)[O-])ccc1N1CCOCC1 has an IC50 (A-431) greater than 1000 nM.

Molecule COc1ccc(CNC(=O)c2cc(NC(C)=O)ccc2N2CCOCC2)cc1O has an IC50 (A-431) of 220 nM.

In the case of COc1ccc(CNC(=O)c2cc([N+](=O)[O-])ccc2N2CCOCC2)cc1O, the IC50 (A-431) is reported as 45 nM, the IC50 (HCT-8) is reported as 60 nM and the IC50 (MDA-MB-231) is reported as 57 nM. It also gave an IC50 (H22) of 50 nM, an IC50 (L02) of 116 nM and an IC50 (HepG2) of 61 nM. The IC50 (K562) was 59 nM.

With COCCNc1ccc([N+](=O)[O-])cc1C(=O)NCc1ccc(OC)c(O)c1 the IC50 (A-431) was greater than 1000 nM.

O=C(NCc1ccc(Cl)cc1)c1cc([N+](=O)[O-])ccc1N1CCOCC1 gave an IC50 (A-431) greater than 1000 nM.

COc1ccc(CNC(=O)c2cc([N+](=O)[O-])ccc2N2CCS(=O)(=O)CC2)cc1O showed an IC50 (A-431) greater than 1000 nM.

COc1ccc(CNC(=O)c2cc(NC(=O)c3ccncc3)ccc2N2CCOCC2)cc1O gave an IC50 (A-431) of 962 nM.

COc1ccc(CNC(=O)c2cc(C(F)(F)F)ccc2N2CCOCC2)cc1O gave an IC50 (A-431) of 37 nM, an IC50 (HCT-8) of 56 nM and an IC50 (MDA-MB-231) of 57 nM. The IC50 (H22) was 55 nM, the IC50 (L02) was 103 nM and the IC50 (HepG2) was 62 nM. The IC50 (K562) was 40 nM.

In the case of CCOC(=O)[C@H](CCc1ccccc1)N[C@@H](C)C(=O)N1CCC[C@H]1C(=O)O [ENALAPRIL], the Stabilty [1] is reported as “Unstable”.

With O=C(NCc1ccc(C(F)(F)F)cc1)c1cc([N+](=O)[O-])ccc1N1CCOCC1 the IC50 (A-431) was greater than 1000 nM.

COc1ccc(CNC(=O)c2cc([N+](=O)[O-])ccc2N2CCOCC2)cc1 gave an IC50 (A-431) of 127 nM.

CCOc1ccc(CNC(=O)c2cc([N+](=O)[O-])ccc2N2CCOCC2)cc1 gave an IC50 (A-431) of 143 nM.

With CN(C)c1ccc(CNC(=O)c2cc([N+](=O)[O-])ccc2N2CCOCC2)cc1 the IC50 (A-431) was 145 nM.

For O=C(OCc1cccc2[nH]ccc12)c1cc([N+](=O)[O-])ccc1N1CCOCC1, the IC50 (A-431) was greater than 1000 nM.

With CCN(CC)c1ccc([N+](=O)[O-])cc1C(=O)NCc1ccc(OC)c(O)c1 the IC50 (A-431) was 51 nM.

Molecule COc1ccc(CNC(=O)c2cc([N+](=O)[O-])ccc2N2CCNCC2)cc1O has an IC50 (A-431) greater than 1000 nM.

Work on COc1ccc(CNC(=O)c2cc(N(C)C)ccc2N2CCOCC2)cc1O yielded an IC50 (A-431) of 105 nM.

In the case of COc1ccc(CNC(=O)c2ccncc2N2CCOCC2)cc1O, the IC50 (A-431) is reported as 118 nM.

For COc1ccc(CNC(=O)c2cc(NC(=O)c3ccco3)ccc2N2CCOCC2)cc1O, the IC50 (A-431) was 478 nM.

Work on COc1ccc(C(=O)Nc2ccc(N3CCOCC3)c(C(=O)NCc3ccc(OC)c(O)c3)c2)cc1 yielded an IC50 (A-431) greater than 1000 nM.

Work on COc1ccc(CNC(=O)c2cc(-c3ccco3)ccc2N2CCOCC2)cc1O yielded an IC50 (A-431) of 215 nM.

COc1ccc(CNC(=O)c2ccccc2N2CCCCC2)cc1O showed an IC50 (A-431) of 30 nM, an IC50 (HCT-8) of 29 nM and an IC50 (MDA-MB-231) of 29 nM. For the same molecule, the IC50 (H22) was 29 nM, the IC50 (L02) was 97 nM and the IC50 (HepG2) was 31 nM. For the same molecule, the IC50 (K562) was 30 nM.

Work on CSc1ccc(CNC(=O)c2cc([N+](=O)[O-])ccc2N2CCOCC2)cc1 yielded an IC50 (A-431) of 221 nM.

For COc1ccc(CNC(=O)c2cc(Br)ccc2N2CCCCC2)cc1O, the IC50 (A-431) was 92 nM.

For COc1ccc(CNC(=O)c2cc(Cl)ccc2N2CCOCC2)cc1O, the IC50 (A-431) was 25 nM, the IC50 (HCT-8) was 25 nM and the IC50 (MDA-MB-231) was 30 nM. For the same molecule, the IC50 (H22) was 31 nM, the IC50 (L02) was 95 nM and the IC50 (HepG2) was 29 nM. The IC50 (K562) was 32 nM.

In the case of O=C(OCc1ccc2[nH]ccc2c1)c1cc([N+](=O)[O-])ccc1N1CCOCC1, the IC50 (A-431) is reported as greater than 1000 nM.
